The assay deals with Plasmodium berghei. Briefly: Luciferase/luciferin-expressing antifolate-resistant parasites were used to infect a culture of HepG2 cells that were pre-incubated with compounds. Infected hepatocytes emit light due to the luciferase reaction. Assay results are presented as the percent inhibition of light emission compared to control. […]. It is filed as functional. Conditions: sporozoite; for IC90: read-out: LUCIFERASE INFECTION ASSAY - IC90.

The mark [1] stands for this setting: read-out: LUCIFERASE INFECTION ASSAY - IC50.

Turning to `Cc1cccc(C2NC(=O)NC3=C2C(=O)N(Cc2ccc(F)cc2)C3)c1` (stereo unspecified), the IC90 (in general, the concentration needed for an effect of 90%) is above 10 µM. In addition, the IC50 – broadly, the concentration needed to halve the response being measured – under setting [1] was above 10 µM.
For the compound `CSc1nc2ccccc2c(=O)n1-c1c(C)cccc1C`, the IC90 is above 11.1 µM. Also, the IC50 (PBLUC_HILL_SLOPE 11.2, PBLUC_R_SQUARED 0.357, read-out: LUCIFERASE INFECTION ASSAY - IC50) stood at 10.5 µM.
Take `C=C(C)C[n+]1cn(C)c(-c2ccccc2)c1-c1ccccc1`: the concentration for an effect of 90% (IC90) is above 10 µM. In addition, the IC50 (HEPG2TOX_HILL_SLOPE 0.508, HEPG2TOX_R_SQUARED 0.671, PBLUC_HILL_SLOPE 5.71, PBLUC_R_SQUARED 0.631, read-out: LUCIFERASE INFECTION ASSAY - IC50) turned out to be 7.55 µM.
For `COc1ccc(/C=C2\CCCc3c2nc2ccccc2c3C(=O)OCc2cccc(C(F)(F)F)c2)cc1OC`, the IC90 was above 10 µM. Besides, the concentration for half-maximal inhibition (IC50) under setting [1] was above 10 µM.
`O=C(COc1ccccc1-c1ccccc1)NCC1CCCCC1`: the IC90 was above 10 µM. Further, the concentration for half-maximal inhibition (IC50) under setting [1] is above 10 µM.
Take `COc1ccc(N(CCCN2C(=O)c3cccc4cccc(c34)C2=O)C(=O)c2ccccc2Cl)cc1`: the IC90 was 0.656 µM. Besides, the IC50 (HEPG2TOX_HILL_SLOPE 2.18, HEPG2TOX_R_SQUARED 0.863, PBLUC_HILL_SLOPE 2.29, PBLUC_R_SQUARED 0.755, read-out: LUCIFERASE INFECTION ASSAY - IC50) is 0.251 µM.
For the compound `CN(C)CCn1c(=O)n(Cc2ccccc2)c(=O)c2c3c(sc21)CCCCC3`, the IC90 is above 8.3 µM. Further, the half-maximal inhibitory concentration (IC50) (PBLUC_HILL_SLOPE 10.5, PBLUC_R_SQUARED 0.0293, read-out: LUCIFERASE INFECTION ASSAY - IC50) came to 7.95 µM.
On to `CC(C)(C)c1cc(C(=O)Nc2cccc(Cl)c2)n(Cc2ccc(Cl)cc2Cl)n1`, for which the IC90 is above 7.56 µM. Also, the IC50 (FFLUC_HILL_SLOPE 10.5, FFLUC_R_SQUARED 0.365, read-out: LUCIFERASE INFECTION ASSAY - IC50) is above 7.56 µM.
As to `CC(Sc1nc(-c2ccccc2)c(-c2ccccc2)o1)C(=O)NC1CC1` (stereo unspecified), the IC90 came out at 5.53 µM. Further, the IC50 (PBLUC_HILL_SLOPE 75.9, PBLUC_R_SQUARED 0.255, read-out: LUCIFERASE INFECTION ASSAY - IC50) worked out at 5.37 µM.
Take `O=C(Nc1nc2ccccn2c1C(=O)NC1CCCC1)c1ccc(F)cc1F`: the 90% effect concentration (IC90) stood at 3.49 µM. Further, under setting [1], the IC50 is 2.94 µM.
As to `CCCNC(=O)c1c(NC(=O)c2cccc(C)c2)nc2ccccn12`, the IC90 was above 9.81 µM. The concentration for half-maximal inhibition (IC50) (PBLUC_HILL_SLOPE 17.7, PBLUC_R_SQUARED 0.381, read-out: LUCIFERASE INFECTION ASSAY - IC50) was determined as 9.1 µM.
Regarding `Cc1cc(C)n(-c2ccc(CN3c4ccc(S(N)(=O)=O)cc4CC3C)cc2)n1` (stereo unspecified), the IC90 is 1.54 µM. Moreover, the IC50 (HEPG2TOX_HILL_SLOPE 1.67, HEPG2TOX_R_SQUARED 0.825, PBLUC_HILL_SLOPE 15.8, PBLUC_R_SQUARED 0.537, read-out: LUCIFERASE INFECTION ASSAY - IC50) was found to be 1.34 µM.
For the compound `Cc1cccc(-c2nc3c(NCc4ccccc4)nccc3[nH]2)c1`, the IC90 stood at 9.18 µM. Also, the IC50 (PBLUC_HILL_SLOPE 2.29, PBLUC_R_SQUARED 0.394, read-out: LUCIFERASE INFECTION ASSAY - IC50) turned out to be 3.51 µM.
For the compound `COc1cccc(Nc2nccc3[nH]c(-c4cccc(F)c4)cc23)c1`, the concentration for an effect of 90% (IC90) turned out to be 2.27 µM. Also, the IC50 (HEPG2TOX_HILL_SLOPE 2.76, HEPG2TOX_R_SQUARED 0.828, PBLUC_HILL_SLOPE 2.74, PBLUC_R_SQUARED 0.773, read-out: LUCIFERASE INFECTION ASSAY - IC50) worked out at 1.02 µM.
Turning to `CCOC(=O)C1CCN(c2cc(C(F)(F)F)nc3c(F)cccc23)CC1`, the IC90 is above 8.91 µM. Moreover, for the setting “FFLUC_HILL_SLOPE 11, FFLUC_R_SQUARED 0.219, read-out: LUCIFERASE INFECTION ASSAY - IC50”, the 50% inhibitory concentration (IC50) was above 8.91 µM.
On to `Fc1ccc(-c2c[n+](-c3ccccc3)c3n2CCCS3)cc1`, for which the IC90 is above 10 µM. Besides, under setting [1], the concentration for half-maximal inhibition (IC50) is above 10 µM.
As to `C/C(=N\N=C(N)N)c1ccc(Cl)c(Cl)c1`, the IC90 is above 10 µM. Under “PBLUC_HILL_SLOPE 2.49, PBLUC_R_SQUARED 0.254, read-out: LUCIFERASE INFECTION ASSAY - IC50”, the 50% inhibitory concentration (IC50) came out at 4.31 µM.
Regarding `Cn1c(NCc2ccccc2)nc2cnc(-c3ccc4ccccc4c3)cc21`, the IC90 came out at 9.43 µM. Moreover, the IC50 (HEPG2TOX_HILL_SLOPE 9.86, HEPG2TOX_R_SQUARED 0.539, PBLUC_HILL_SLOPE 12.2, PBLUC_R_SQUARED 0.511, read-out: LUCIFERASE INFECTION ASSAY - IC50) worked out at 7.88 µM.
`NC(Cc1ccc(C(F)(F)F)cc1)c1csc(Nc2cc(Oc3ccccc3)ncn2)n1` (stereo unspecified): the IC90 is above 7.21 µM. The concentration for half-maximal inhibition (IC50) (PBLUC_HILL_SLOPE 3.27, PBLUC_R_SQUARED 0.275, read-out: LUCIFERASE INFECTION ASSAY - IC50) is 4.26 µM.
Consider `CC(C)N(Cc1nc(=O)c2ccccc2[nH]1)C(=O)COc1ccccc1Cc1ccccc1`, for which the concentration for an effect of 90% (IC90) was above 10 µM. Besides, under setting [1], the IC50 was above 10 µM.
`O=C1CN(C(=O)CSC2=N/C(=C/c3ccccc3)C(=O)N2c2ccc(F)cc2)c2ccccc2N1`: the concentration for an effect of 90% (IC90) was above 10 µM. For the same compound, the IC50 under setting [1] was above 10 µM.
On to `Cc1cc(C(C)(C)C)cc(C)c1COC(=O)/C(=C/c1ccccc1)n1nnnc1C`, for which the concentration for an effect of 90% (IC90) is above 10 µM. In addition, under setting [1], the IC50 was above 10 µM.
Consider `CC1(C)CC2CC(C)(CN2C(=O)CN2CCN(c3cccc(C(F)(F)F)c3)CC2)C1` (stereo unspecified), for which the IC90 is above 10 µM. Further, the 50% inhibitory concentration (IC50) (PBLUC_HILL_SLOPE 7.96, PBLUC_R_SQUARED 0.534, read-out: LUCIFERASE INFECTION ASSAY - IC50) turned out to be 9.19 µM.
On to `Cc1ccc(/C=C(\C#N)c2nc(=O)c3c4c(sc3[nH]2)CC(C)CC4)o1` (stereo unspecified), for which the IC90 is above 10 µM. Besides, under setting [1], the IC50 is above 10 µM.
Regarding `Cc1ccc(C(=O)OCCOc2ccccc2)cc1NC(=O)c1ccco1`, the IC90 is 1.22 µM. Moreover, the half-maximal inhibitory concentration (IC50) (PBLUC_HILL_SLOPE 15.6, PBLUC_R_SQUARED 0.272, read-out: LUCIFERASE INFECTION ASSAY - IC50) was found to be 1.06 µM.
In the case of `Cc1cccc(OC2=C(Cl)C(=O)c3ccccc3C2=O)c1`, the concentration for an effect of 90% (IC90) was above 11 µM. Besides, for the setting “HEPG2TOX_HILL_SLOPE 2.98, HEPG2TOX_R_SQUARED 0.916, PBLUC_HILL_SLOPE 1.18, PBLUC_R_SQUARED 0.608, read-out: LUCIFERASE INFECTION ASSAY - IC50”, the IC50 is 5.41 µM.
In the case of `COc1ccc(OC)c(CCNc2nc3cnc(-c4cccc(Cl)c4)cc3n2C)c1`, the IC90 was determined as 1.4 µM. The IC50 (HEPG2TOX_HILL_SLOPE 5.61, HEPG2TOX_R_SQUARED 0.886, PBLUC_HILL_SLOPE 7.64, PBLUC_R_SQUARED 0.579, read-out: LUCIFERASE INFECTION ASSAY - IC50) stood at 1.05 µM.
Turning to `CC1C/C(=N\Nc2cc(Cl)cc(Cl)c2)c2cc(Cl)ccc2S1` (stereo unspecified), the IC90 was above 8.88 µM. Where the note is “HEPG2TOX_HILL_SLOPE 6.52, HEPG2TOX_R_SQUARED 0.251, PBLUC_HILL_SLOPE 17, PBLUC_R_SQUARED 0.35, read-out: LUCIFERASE INFECTION ASSAY - IC50”, the half-maximal inhibitory concentration (IC50) stood at 8.47 µM.
For the compound `O=C(NCCSCc1ccccc1Cl)c1cccs1`, the 90% effect concentration (IC90) was found to be 8.99 µM. Also, where the note is “PBLUC_HILL_SLOPE 3.91, PBLUC_R_SQUARED 0.447, read-out: LUCIFERASE INFECTION ASSAY - IC50”, the 50% inhibitory concentration (IC50) worked out at 5.12 µM.
On to `CCOc1ccccc1C(=O)N(C)Cc1nc(-c2ccccc2)no1`, for which the 90% effect concentration (IC90) was above 9.78 µM. Moreover, the IC50 under setting [1] was above 9.78 µM.
For the compound `CNC(=O)c1cccc(-c2cc(C3(CNc4ccccc4F)CC3)ccn2)c1`, the IC90 was above 10 µM. In addition, the 50% inhibitory concentration (IC50) under setting [1] is above 10 µM.
`COc1ccc(-c2ccc(-c3nc4c(c(=O)[nH]c(=O)n4CC(C)C)n3CC(C)C)o2)c([N+](=O)[O-])c1`: the IC90 was above 10 µM. In addition, the IC50 under setting [1] is above 10 µM.
Regarding `c1ccc(CSc2ncc(-c3nnnn3-c3ccccc3)c(-c3ccccc3)n2)cc1`, the IC90 is above 7.81 µM. Moreover, the IC50 (FFLUC_HILL_SLOPE 10.9, FFLUC_R_SQUARED 0.438, read-out: LUCIFERASE INFECTION ASSAY - IC50) is above 7.81 µM.
For `O=C(Nc1ccccc1)c1ccc(CN2CCN(CCOc3ccccc3)CC2)cc1`, the IC90 was found to be 1.96 µM. Further, the concentration for half-maximal inhibition (IC50) under setting [1] is 0.646 µM.
Turning to `CC(C)n1ncc2cc(C(=O)Nc3nc(-c4ccccn4)cs3)cnc21`, the concentration for an effect of 90% (IC90) turned out to be 2.1 µM. Further, the 50% inhibitory concentration (IC50) under setting [1] was 1.07 µM.
As for `CC(C#N)Sc1nc(Nc2ccccc2)c2ccccc2n1` (stereo unspecified), the IC90 is above 10 µM. In addition, the IC50 under setting [1] is above 10 µM.
Take `CC(C)(C)N1C(=O)CC(=O)CC1c1ccc(Cl)cc1` (stereo unspecified): the IC90 was found to be 11.1 µM. Under setting [1], the concentration for half-maximal inhibition (IC50) came to 9.51 µM.
Consider `CC1(C)C2CC=C(/C=N/NC(=O)Cn3c(C(F)(F)F)nc4ccccc43)C1C2` (stereo unspecified), for which the IC90 is above 10 µM. In addition, the IC50 (PBLUC_HILL_SLOPE 3.28, PBLUC_R_SQUARED 0.493, read-out: LUCIFERASE INFECTION ASSAY - IC50) worked out at 6.15 µM.
For `CS(=O)(=O)c1ccc(N2CCCN(c3ccc(C(F)(F)F)cn3)CC2)c([N+](=O)[O-])c1`, the 90% effect concentration (IC90) was above 10 µM. Further, the concentration for half-maximal inhibition (IC50) under setting [1] was above 10 µM.
Take `COc1ccc(-c2nn(-c3ccccc3)cc2/C=C/C(=O)OCc2ncc(Cl)n2C)cc1OC`: the IC90 is above 10 µM. For the same compound, the half-maximal inhibitory concentration (IC50) under setting [1] is above 10 µM.
For the compound `Clc1ccc(SCc2nc(N3CCN(c4ncccn4)CC3)c3c4c(sc3n2)CCC4)cc1`, the concentration for an effect of 90% (IC90) was above 10 µM. For the same compound, under setting [1], the concentration for half-maximal inhibition (IC50) was above 10 µM.
Consider `CC(C)(C)c1ccccc1NC(=O)CCC(=O)N1CCC(c2ccccc2)=N1`, for which the concentration for an effect of 90% (IC90) is above 10 µM. The IC50 under setting [1] is above 10 µM.
Turning to `COc1ccc(C(=O)/C=C/c2cccc(C#N)c2)cc1CN1CCCC1`, the IC90 is above 10 µM. The half-inhibitory concentration (IC50) (HEPG2TOX_HILL_SLOPE 11.5, HEPG2TOX_R_SQUARED 0.623, read-out: LUCIFERASE INFECTION ASSAY - IC50) is above 10 µM.

The values are drawn from ChEMBL document CHEMBL4483862, “Open-source discovery of chemical leads for next-generation chemoprotective antimalarials” (2018).
